Source: ChEMBL document CHEMBL3885861, “Open TG-GATES”

Species on record: Rattus norvegicus
Test: Open TG-GATES - Regimen: Daily Repeat
Type: toxicity, organism-based, Sprague-Dawley
Parameters: regimen Daily Repeat, gender Male, age 6 weeks
Details: in vivo, po, 0 mg/kg, route gavage, dose level Control; for APTT / Bas / Eos / Fbg / Hb / Ht / Lym / MCH / MCHC / MCV / Mono / Neu / PT / Plat / RBC / Ret / WBC: tissue Blood; for KIDNEY_L / KIDNEY_R / KIDNEY_TOTAL: tissue Kidney; for LIVER: tissue Liver; for ALP / ALT / AST / BUN / CRE / Ca / DBIL / GLC / IP / K / LDH / Na / PL / RALB / TBIL / TC / TG / TP / gamma-GTP: tissue Plasma

Oc1ncnc2[nH]ncc12 [ALLOPURINOL]
TERMINAL_BW (72 h, time 3 day): 244.3 g | APTT (72 h, time 3 day): 16.6 s | Bas (72 h, time 3 day): 0% | Eos (72 h, time 3 day): 0.8% | Fbg (72 h, time 3 day): 237 mg/dL | Hb (72 h, time 3 day): 13.9 g/dL | Ht (72 h, time 3 day): 41.5% | Lym (72 h, time 3 day): 74.6% | MCH (72 h, time 3 day): 22.3 pg | MCHC (72 h, time 3 day): 33.3% | MCV (72 h, time 3 day): 66.7 fL | Mono (72 h, time 3 day): 11.6% | Neu (72 h, time 3 day): 12.8% | PT (72 h, time 3 day): 11.9 s | Plat (72 h, time 3 day): 93.5 x10_4/uL | RBC (72 h, time 3 day): 623.2 x10_4/ul | Ret (72 h, time 3 day): 7.7% | WBC (72 h, time 3 day): 127.2 x10_2/uL | KIDNEY_L (72 h, time 3 day): 1 g | KIDNEY_R (72 h, time 3 day): 1 g | KIDNEY_TOTAL (72 h, time 3 day): 2.1 g | LIVER (72 h, time 3 day): 12.2 g | ALP (72 h, time 3 day): 863.2 IU/L | ALT (72 h, time 3 day): 34.2 IU/L | AST (72 h, time 3 day): 58.2 IU/L | BUN (72 h, time 3 day): 18.2 mg/dL | CRE (72 h, time 3 day): 0.5 mg/dL | Ca (72 h, time 3 day): 11.4 mg/dL | DBIL (72 h, time 3 day): 0 mg/dL | GLC (72 h, time 3 day): 201.6 mg/dL | IP (72 h, time 3 day): 8.1 mg/dL | K (72 h, time 3 day): 4.9 meq/L | LDH (72 h, time 3 day): 84.6 IU/L | Na (72 h, time 3 day): 137.8 meq/L | PL (72 h, time 3 day): 174.6 mg/dL | RALB (72 h, time 3 day): 3.9 g/dL | TBIL (72 h, time 3 day): 0.2 mg/dL | TC (72 h, time 3 day): 87.8 mg/dL | TG (72 h, time 3 day): 130 mg/dL | TP (72 h, time 3 day): 6 g/dL | gamma-GTP (72 h, time 3 day): 1.2 IU/L | TERMINAL_BW ([…], time 7 day): 249.8 g | TERMINAL_BW ([…], time 14 day): 318.9 g | TERMINAL_BW ([…], time 28 day): 401.4 g | APTT ([…], time 7 day): 17.2 s | Bas ([…], time 7 day): 0% | Eos ([…], time 7 day): 1% | Fbg ([…], time 7 day): 242.2 mg/dL | Hb ([…], time 7 day): 15 g/dL | Ht ([…], time 7 day): 45.2% | Lym ([…], time 7 day): 77.8% | MCH ([…], time 7 day): 20.4 pg | MCHC ([…], time 7 day): 33.2% | MCV ([…], time 7 day): 61.4 fL | Mono ([…], time 7 day): 4.8% | Neu ([…], time 7 day): 16.8% | PT ([…], time 7 day): 12 s | Plat ([…], time 7 day): 118.1 x10_4/uL | RBC ([…], time 7 day): 737.4 x10_4/ul | Ret ([…], time 7 day): 4.5% | APTT ([…], time 14 day): 16.9 s | Bas ([…], time 14 day): 0% | Eos ([…], time 14 day): 1% | Fbg ([…], time 14 day): 227 mg/dL | Hb ([…], time 14 day): 14.5 g/dL | Ht ([…], time 14 day): 44% | Lym ([…], time 14 day): 76.4% | MCH ([…], time 14 day): 19.9 pg | MCHC ([…], time 14 day): 33% | MCV ([…], time 14 day): 60.5 fL | Mono ([…], time 14 day): 6% | Neu ([…], time 14 day): 16.8% | PT ([…], time 14 day): 11.9 s | Plat ([…], time 14 day): 97.7 x10_4/uL | RBC ([…], time 14 day): 728 x10_4/ul | Ret ([…], time 14 day): 3.7% | APTT ([…], time 28 day): 16.3 s | Bas ([…], time 28 day): 0% | Eos ([…], time 28 day): 1% | Fbg ([…], time 28 day): 230.6 mg/dL | Hb ([…], time 28 day): 14.8 g/dL | Ht ([…], time 28 day): 44.2% | Lym ([…], time 28 day): 80.8% | MCH ([…], time 28 day): 19.3 pg | MCHC ([…], time 28 day): 33.5% | MCV ([…], time 28 day): 57.6 fL | Mono ([…], time 28 day): 6.2% | Neu ([…], time 28 day): 11.8% | PT ([…], time 28 day): 12.3 s | Plat ([…], time 28 day): 109.3 x10_4/uL | RBC ([…], time 28 day): 766.8 x10_4/ul | Ret ([…], time 28 day): 3.5% | WBC ([…], time 28 day): 163 x10_2/uL | KIDNEY_L ([…], time 7 day): 1.1 g | KIDNEY_R ([…], time 7 day): 1.1 g | KIDNEY_TOTAL ([…], time 7 day): 2.1 g | KIDNEY_L ([…], time 14 day): 1.2 g | KIDNEY_R ([…], time 14 day): 1.2 g | KIDNEY_TOTAL ([…], time 14 day): 2.5 g | KIDNEY_L ([…], time 28 day): 1.4 g | KIDNEY_R ([…], time 28 day): 1.4 g | KIDNEY_TOTAL ([…], time 28 day): 2.8 g | LIVER ([…], time 14 day): 14.3 g | LIVER ([…], time 28 day): 16.2 g | ALP ([…], time 7 day): 874.8 IU/L | ALT ([…], time 7 day): 26 IU/L | AST ([…], time 7 day): 56.2 IU/L | BUN ([…], time 7 day): 22.4 mg/dL | CRE ([…], time 7 day): 0.5 mg/dL | DBIL ([…], time 7 day): 0.06 mg/dL | GLC ([…], time 7 day): 203 mg/dL | IP ([…], time 7 day): 7.7 mg/dL | K ([…], time 7 day): 4.6 meq/L | LDH ([…], time 7 day): 86.2 IU/L | Na ([…], time 7 day): 136.6 meq/L | PL ([…], time 7 day): 135.4 mg/dL | RALB ([…], time 7 day): 4 g/dL | TBIL ([…], time 7 day): 0.3 mg/dL | TC ([…], time 7 day): 68.2 mg/dL | TG ([…], time 7 day): 60.4 mg/dL | TP ([…], time 7 day): 6.2 g/dL | gamma-GTP ([…], time 7 day): 1.2 IU/L | ALP ([…], time 14 day): 710.4 IU/L | ALT ([…], time 14 day): 32 IU/L | AST ([…], time 14 day): 62.8 IU/L | BUN ([…], time 14 day): 17.8 mg/dL | CRE ([…], time 14 day): 0.6 mg/dL | Ca ([…], time 14 day): 10.9 mg/dL | DBIL ([…], time 14 day): 0.01 mg/dL | GLC ([…], time 14 day): 206.4 mg/dL | IP ([…], time 14 day): 7.9 mg/dL | K ([…], time 14 day): 4.3 meq/L | LDH ([…], time 14 day): 69.8 IU/L | Na ([…], time 14 day): 139.8 meq/L | PL ([…], time 14 day): 150 mg/dL | RALB ([…], time 14 day): 3.6 g/dL | TBIL ([…], time 14 day): 0.3 mg/dL | TC ([…], time 14 day): 70 mg/dL | TG ([…], time 14 day): 118 mg/dL | TP ([…], time 14 day): 6 g/dL | gamma-GTP ([…], time 14 day): 1.6 IU/L | ALP ([…], time 28 day): 602.4 IU/L | ALT ([…], time 28 day): 31.6 IU/L | AST ([…], time 28 day): 61.8 IU/L | BUN ([…], time 28 day): 20 mg/dL | CRE ([…], time 28 day): 0.4 mg/dL | DBIL ([…], time 28 day): 0.018 mg/dL | GLC ([…], time 28 day): 186 mg/dL | IP ([…], time 28 day): 6.5 mg/dL | K ([…], time 28 day): 4.7 meq/L | LDH ([…], time 28 day): 81 IU/L | Na ([…], time 28 day): 138.8 meq/L | PL ([…], time 28 day): 146.2 mg/dL | RALB ([…], time 28 day): 3.8 g/dL | TBIL ([…], time 28 day): 0.3 mg/dL | TC ([…], time 28 day): 67.2 mg/dL | TG ([…], time 28 day): 147.4 mg/dL | TP ([…], time 28 day): 6.2 g/dL | gamma-GTP ([…], time 28 day): 1.4 IU/L
